Reference: patent publication US20140081017A1, “Histone Deacetylase Inhibitors for Enhancing Activity of Antifungal Agents” (METHYLGENE INC., priority 2012, published 2014)
≈ marks a conversion by molar mass, not a printed value. Like-named read-outs stand apart in the source and are kept apart here.

Legend:
[1] = test system: C. glabrata; experiment: Checkerboard FIC assay in combination with fluconazole (MIC alone and in combination, FICI); type: cell-based, Candida glabrata; settings: for FICI of combination resulting in fluconazole MIC of: 2 ug/mL / FICI of combination resulting in fluconazole MIC of: 4 ug/mL / FICI of combination resulting in fluconazole MIC of: 8 ug/mL: FICI calculated using a fluconazole MIC of 16 μg/mL; for FICI of combination resulting in fluconazole MIC of: 2 ug/mL (value in parenthesis) / FICI of combination resulting in fluconazole MIC of: 4 ug/mL (value in parenthesis) / FICI of combination resulting in fluconazole MIC of: 8 ug/mL (value in parenthesis): FICI using a fluconazole MIC of 128 μg/mL; for MIC: Nakaseomyces glabratus; for Multiple of compound MIC to synergize fluconazole MIC to 2 ug/mL / Multiple of compound MIC to synergize fluconazole MIC to 4 ug/mL / Multiple of compound MIC to synergize fluconazole MIC to 8 ug/mL: concentration in combination as multiple of the compound's MIC alone; for Multiple of compound MIC to synergize fluconazole MIC to 2 ug/mL: fluconazole MIC 2 ug/mL; for Multiple of compound MIC to synergize fluconazole MIC to 4 ug/mL: fluconazole MIC 4 ug/mL; for Multiple of compound MIC to synergize fluconazole MIC to 8 ug/mL: fluconazole MIC 8 ug/mL; for Concentration of Methylgene compound to synergize fluconazole MIC to 2 ug/mL / Concentration of Methylgene compound to synergize fluconazole MIC to 4 ug/mL / Concentration of Methylgene compound to synergize fluconazole MIC to 8 ug/mL: in combination with fluconazole; for Concentration of Methylgene compound to synergize fluconazole MIC to 2 ug/mL: fluconazole MIC lowered to 2 ug/mL; for Concentration of Methylgene compound to synergize fluconazole MIC to 4 ug/mL: fluconazole MIC lowered to 4 ug/mL; for Concentration of Methylgene compound to synergize fluconazole MIC to 8 ug/mL: fluconazole MIC lowered to 8 ug/mL
Method: The ability of the compounds to synergize with azoles against C. glabrata was evaluated by the checkerboard assay, a common laboratory method used to evaluate synergy, antagonism, and indifference using fractional inhibitory concentrations (FICs) and FIC indices (FICI).
The test compounds were supplied as a powder and dissolved in dimethylsulfoxide (DMSO) on the day of assay. Stock solutions were prepared at 640 ug/mL. Fluconazole was dissolved in deionized water to a stock concentration of 320 ug/mL. All test articles were in solution under these conditions.
(§1) The test organisms and reference isolates were streaked for isolation on Sabouraud agar medium (yeasts) or potato dextrose agar (fungi). Colonies were picked by swab from the medium and resuspended in the appropriate broth containing cryoprotectant. The suspensions were aliquoted into cryogenic vials and maintained at −80° C.
(§2) Prior to testing, the yeast isolates were streaked from the frozen vials onto Sabouraud dextrose agar. The plates were incubated overnight at 35° C. The fungal isolate was grown on potato dextrose agar slants and was incubated for 7-10 days at room temperature.
(§3) Both yeast and fungal isolates were tested in RPMI medium buffered with 0.165 M MOPS (3-(N-morpholino)propanesulfonic acid). The pH of the medium was adjusted to 7.0 with 1 N NaOH. The medium was sterile filtered using a 0.2 um PES (polyethersulfone) filter and stored at 4° C. until used.
FIC values were determined using a broth microdilution method (CLSI; 1, 3). To prepare the test plates, automated liquid handlers (Multidrop 384, Labsystems, Helsinki, Finland; Biomek 2000 and Biomek FX, Beckman Coulter, Fullerton Calif.) were used to conduct serial dilutions and liquid transfers.
The wells of standard 96-well microdilution plates (Costar 3795) were filled with 150 uL of DMSO in columns 2-12. Three hundred microliters of each test compound was added to each well in Column 1 of the plates. The Biomek 2000 was used to make eleven 2-fold serial dilutions in each of these “test compound mother” plates. The wells of the “fluconazole mother plates” were filled with 150 uL of sterile water in rows B-H. Row A of these plates was filled with 300 uL of the fluconazole stock solution. Serial 2-fold dilutions were then prepared from top to bottom by hand, using a multichannel pipette in rows B-G. The “daughter plates” were loaded with 180 uL of RPMI using the Multidrop 384. The Biomek FX was used to transfer 5 uL of compound solution from each well of a fluconazole mother plate to the corresponding well in all of the daughter plates in a single step. Then the Biomek FX was used to transfer 5 uL of compound solution from each well of a test compound mother plate to the corresponding well of the corresponding test compound daughter plate (already containing fluconazole at the appropriate concentrations) in a single step. Row H and Column 12 each contained serial dilutions of the test agent and fluconazole alone, respectively, for determination of the MIC.
Standardized inoculum of each organism was prepared per CLSI methods (CLSI; 1, 3). For yeast isolates, colonies were picked from the primary plate and a suspension was prepared in 0.85% saline to equal a 0.5 McFarland turbidity standard. For the fungal isolate, 1 mL of 0.85% saline was dispensed onto a potato dextrose agar slant onto which the isolate had been inoculated 7-10 days previously. Using a swab, a suspension of the fungus was made. After a short time to allow the heavy particles to settle out, a small quantity of the supernatant was dispensed into 0.85% saline and the suspension was adjusted to equal a 0.5 McFarland turbidity standard. Both yeast and fungal isolates were diluted 1:100 in RPMI and then transferred to compartments of sterile reservoirs divided by length (Beckman Coulter). The Biomek 2000 was used to inoculate the plates. […]

[2] = test system: Candida albicans; experiment: Minimal Inhibitory Concentration (MIC) assay, broth microdilution per CLSI; type: cell-based; settings: Candida albicans, read-out: Minimum Inhibitory Concentrations against Yeast Isolates, Candida albicans;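 note: two read times 24 hr and 48 hr of incubation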
Method: (§4) The in vitro activities of the inventive compounds (compound(s) herein) against fungi and/or yeasts were determined with isolates Candida albicans, Candida glabrata and Candida parapsilosis. The comparator compounds included fluconazole, caspofungin and amphotericin B.
(§5) The compounds were supplied as a powder, and were dissolved in dimethylsulfoxide (DMSO) the day of assay. Stock solutions were prepared at 10 mg/mL and diluted to a starting stock concentration of 2.56 mg/mL. Amphotericin B was dissolved in DMSO to a stock concentration of 2.56 mg/mL. Fluconazole was dissolved in deionized water to a stock concentration of 2.56 mg/mL. Caspofungin was received as a stock solution of 3.2 mg/mL in DMSO and was diluted to a starting stock concentration of 2.56 mg/mL.
as §1, §2, §3
(§6) The MIC assay method followed the procedure described by the Clinical and Laboratory Standards Institute (CLSI; 1, 2, 3) and employed automated liquid handlers to conduct serial dilutions and liquid transfers. Automated liquid handlers included the Multidrop 384 (Labsystems, Helsinki, Finland), Biomek 2000 and Biomek FX (Beckman Coulter, Fullerton Calif.). The wells in columns 2-12 in standard 96-well microdilution plates (Costar 3795) were filled with 150 ul of 100% DMSO. These would become the ‘mother plates’ from which ‘daughter’ or test plates would be prepared. The compounds (300 uL at 40× the desired top concentration in the test plates) were dispensed into the appropriate well in Column 1 of the mother plates. The Biomek 2000 was used to make serial 1:1 dilutions through Column 11 in the “mother plate”. The wells of Column 12 contained no compounds and were the organism growth control wells.
(§7) The daughter plates were loaded with 185 uL per well of RPMI described above using the Multidrop 384. The daughter plates were prepared using the Biomek FX which transferred 5 μL of the compound solution from each well of a mother plate to the corresponding well of the daughter plate in a single step.
(§8) Standardized inoculum of each organism was prepared per CLSI methods. For yeast isolates, colonies were picked from the streak plate and a suspension was prepared in 0.85% saline. For the fungal isolate, 1 mL of 0.85% saline was dispensed onto the potato dextrose agar slant that had been inoculated 7-10 days previously. Using a swab, a suspension of the fungus was made. After a short time to allow the heavy particles to settle out, a small quantity of the supernatant was dispensed into 0.85% saline and the suspension adjusted to equal a 0.5 McFarland turbidity standard. Both yeast and fungal isolates were diluted 1:100 in RPMI and then transferred to compartments of sterile reservoirs divided by length (Beckman Coulter). The Biomek 2000 was used to inoculate the plates. Daughter plates were placed on the Biomek 2000 work surface reversed so that inoculation took place from low to high compound concentration. The Biomek 2000 delivered 10 μL of standardized inoculum into each well. Thus, the wells of the daughter plates ultimately contained 185 uL of RPMI, 5 uL of the compound solution, and 10 uL of inoculum. […]

[3] = test system: Candida parapsilosis; experiment: as above; type: cell-based; settings: Lodderomyces parapsilosis, read-out: Minimum Inhibitory Concentrations against Yeast Isolates, Candida parapsilosis;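 note: two read times 24 hr and 48 hr of incubation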
Method: as §4, §5, §1, §2, §3, §6, §7, §8

[4] = test system: Candida glabrata; experiment: as above; type: cell-based; settings: Nakaseomyces glabratus, read-out: Minimum Inhibitory Concentrations against Yeast Isolates, Candida glabrata;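 note: two read times 24 hr and 48 hr of incubation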
Method: as §4, §5, §1, §2, §3, §6, §7, §8

[5] = MIC of the example compound alone against C. glabrata in the checkerboard assay, approximately 48 hr, read-out: Methylgene MIC
[6] = test compound alone, C. glabrata, approx. 48 hr at 35° C., read-out: Compound MIC
[7] = 24 hr reading (first value of cell 24 hr/48 hr)
[8] = 48 hr reading (second value of cell 24 hr/48 hr)

| SMILES | FICI of combination resulting in fluconazole MIC of: 2 ug/mL ([1]; C. glabrata) | FICI of combination resulting in fluconazole MIC of: 4 ug/mL ([1]; C. glabrata) | FICI of combination resulting in fluconazole MIC of: 8 ug/mL ([1]; C. glabrata) | FICI of combination resulting in fluconazole MIC of: 2 ug/mL (value in parenthesis) ([1]; C. glabrata) | FICI of combination resulting in fluconazole MIC of: 4 ug/mL (value in parenthesis) ([1]; C. glabrata) | FICI of combination resulting in fluconazole MIC of: 8 ug/mL (value in parenthesis) ([1]; C. glabrata) | MIC [1, 5] [µg/mL] | MIC [1, 6] [µg/mL] | Multiple of compound MIC to synergize fluconazole MIC to 2 ug/mL [1] | Multiple of compound MIC to synergize fluconazole MIC to 4 ug/mL [1] | Multiple of compound MIC to synergize fluconazole MIC to 8 ug/mL [1] | Concentration of Methylgene compound to synergize fluconazole MIC to 2 ug/mL ([1]; C. glabrata) [µg/mL] | Concentration of Methylgene compound to synergize fluconazole MIC to 4 ug/mL ([1]; C. glabrata) [µg/mL] | Concentration of Methylgene compound to synergize fluconazole MIC to 8 ug/mL ([1]; C. glabrata) [µg/mL] | MIC [2, 7] [µg/mL] | MIC [2, 8] [µg/mL] | MIC [3, 7] [µg/mL] | MIC [3, 8] [µg/mL] | MIC [4, 7] [µg/mL] | MIC [4, 8] [µg/mL] |
| --- | --- | --- | --- | --- | --- | --- | --- | --- | --- | --- | --- | --- | --- | --- | --- | --- | --- | --- | --- | --- |
| COc1ccc(CCCCc2ccc(CC(=O)NO)cc2)cc1 [Example 9, N-hydroxy-2-(4-(4-(4-methoxyphenyl)butyl)phenyl)acetamide] | 0.625 | 0.490 | 0.620 | 0.516 | 0.271 | 0.183 | 0.5 | 0.5 | (½x) | (¼x) | (⅛x) | 0.25 | 0.12 | 0.06 | 1 (≈ 3.19 µM) | 1 (≈ 3.19 µM) | 1 (≈ 3.19 µM) | 1 (≈ 3.19 µM) | 0.5 (≈ 1.6 µM) | > 4 |
| COCCOCCOCCOCCOCCOc1ccc(CCCCc2ccc(CC(=O)NO)cc2)cc1 [Example 10, 2-(4-(4-(4-(2,5,8,11,14-pentaoxahexadecan-16-yloxy)phenyl)butyl)phenyl)-N-hydroxyacetamide] | 0.375 | 0.500 | 0.625 | 0.266 | 0.281 | 0.188 | 2 | 2 | (¼x) | (¼x) | (⅛x) | 0.5 | 0.5 | 0.25 | > 64 | > 64 | > 64 | > 64 | > 64 | > 64 |
